{
  "source": "patent US5134124A",
  "about": "“Use of a statin derivative in the treatment of eye complaints” (Sanofi, priority 1989, dated 1992)",
  "key": {"human plasma renin": {"target": "T1, human plasma renin (Homo sapiens, UniProt P00797)", "T1 construct": "from tissue; host or cells: human plasma", "T1 sequence (P00797 67-406)": "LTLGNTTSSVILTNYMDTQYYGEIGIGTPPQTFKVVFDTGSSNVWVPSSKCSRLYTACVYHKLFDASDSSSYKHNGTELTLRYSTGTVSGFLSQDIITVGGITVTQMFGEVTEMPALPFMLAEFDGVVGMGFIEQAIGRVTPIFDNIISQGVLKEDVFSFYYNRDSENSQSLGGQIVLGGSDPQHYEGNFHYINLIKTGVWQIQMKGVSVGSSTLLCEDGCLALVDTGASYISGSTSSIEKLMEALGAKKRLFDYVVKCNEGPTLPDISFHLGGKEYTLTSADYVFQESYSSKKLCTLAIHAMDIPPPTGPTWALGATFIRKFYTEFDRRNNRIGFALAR", "assay": "Inhibition of human plasma renin activity at pH 7.4", "type": "biochemical", "settings": "method of EP 211 744, read-out: 50% inhibitory concentration (IC50), inhibition of human plasma renin activity", "protocol": "The inhibition of human plasma renin activity at pH 7.4 was measured for this compound (I) according to the method described in patent application EP 211 744."}, "[1]": {"system": "intraocular pressure in rabbits", "assay": "Effect on the intraocular pressure in rabbits after increase by intravenous injection of a 5% glucose solution", "type": "in vivo", "settings": "eye lotion, pressure increased by intravenous injection of a 5% glucose solution"}},
  "data": [
    {"smiles": "CCC(C)C(NC(=O)CC(O)C(CC1CCCCC1)NC(=O)C(Cc1cnc[nH]1)NC(=O)C(Cc1ccccc1)NC(=O)CCc1cccnc1)C(=O)NC(O)C(C)CO", "note": "(centres unmarked) [compound (I), N-(3-pyridylpropionyl)phenylalanylhistidyl(cyclohexyl)statyl-N-(1,3-dihydroxy-2-methylpropyl)isoleucinamide]", "values": [
      {"measurement": "IC50", "setting": "human plasma renin", "value": 1, "unit": "pM"},
      {"measurement": "effect on the intraocular pressure", "setting": "[1]", "value": "enables the intraocular pressure to return rapidly to its normal value"}
    ]}
  ]
}
